Reference: ChEMBL document CHEMBL1154530, “Pyridyl-pyrimidine benzimidazole derivatives as potent, selective, and orally bioavailable inhibitors of Tie-2 kinase” (Bioorg Med Chem Lett, 2009)
Calls of active or inactive are those of the source. No cut-off for these calls is given here.

What was measured:
Angiopoietin-1 receptor [1] = biological target: T1, Angiopoietin-1 receptor (Homo sapiens, UniProt Q02763); assay: Inhibition of Tie2
[2] = biological target: Vascular endothelial growth factor receptor 2 (Homo sapiens, UniProt P35968); assay: Inhibition of KDR
Chain of Vascular endothelial growth factor receptor 2 (P35968 whole entry): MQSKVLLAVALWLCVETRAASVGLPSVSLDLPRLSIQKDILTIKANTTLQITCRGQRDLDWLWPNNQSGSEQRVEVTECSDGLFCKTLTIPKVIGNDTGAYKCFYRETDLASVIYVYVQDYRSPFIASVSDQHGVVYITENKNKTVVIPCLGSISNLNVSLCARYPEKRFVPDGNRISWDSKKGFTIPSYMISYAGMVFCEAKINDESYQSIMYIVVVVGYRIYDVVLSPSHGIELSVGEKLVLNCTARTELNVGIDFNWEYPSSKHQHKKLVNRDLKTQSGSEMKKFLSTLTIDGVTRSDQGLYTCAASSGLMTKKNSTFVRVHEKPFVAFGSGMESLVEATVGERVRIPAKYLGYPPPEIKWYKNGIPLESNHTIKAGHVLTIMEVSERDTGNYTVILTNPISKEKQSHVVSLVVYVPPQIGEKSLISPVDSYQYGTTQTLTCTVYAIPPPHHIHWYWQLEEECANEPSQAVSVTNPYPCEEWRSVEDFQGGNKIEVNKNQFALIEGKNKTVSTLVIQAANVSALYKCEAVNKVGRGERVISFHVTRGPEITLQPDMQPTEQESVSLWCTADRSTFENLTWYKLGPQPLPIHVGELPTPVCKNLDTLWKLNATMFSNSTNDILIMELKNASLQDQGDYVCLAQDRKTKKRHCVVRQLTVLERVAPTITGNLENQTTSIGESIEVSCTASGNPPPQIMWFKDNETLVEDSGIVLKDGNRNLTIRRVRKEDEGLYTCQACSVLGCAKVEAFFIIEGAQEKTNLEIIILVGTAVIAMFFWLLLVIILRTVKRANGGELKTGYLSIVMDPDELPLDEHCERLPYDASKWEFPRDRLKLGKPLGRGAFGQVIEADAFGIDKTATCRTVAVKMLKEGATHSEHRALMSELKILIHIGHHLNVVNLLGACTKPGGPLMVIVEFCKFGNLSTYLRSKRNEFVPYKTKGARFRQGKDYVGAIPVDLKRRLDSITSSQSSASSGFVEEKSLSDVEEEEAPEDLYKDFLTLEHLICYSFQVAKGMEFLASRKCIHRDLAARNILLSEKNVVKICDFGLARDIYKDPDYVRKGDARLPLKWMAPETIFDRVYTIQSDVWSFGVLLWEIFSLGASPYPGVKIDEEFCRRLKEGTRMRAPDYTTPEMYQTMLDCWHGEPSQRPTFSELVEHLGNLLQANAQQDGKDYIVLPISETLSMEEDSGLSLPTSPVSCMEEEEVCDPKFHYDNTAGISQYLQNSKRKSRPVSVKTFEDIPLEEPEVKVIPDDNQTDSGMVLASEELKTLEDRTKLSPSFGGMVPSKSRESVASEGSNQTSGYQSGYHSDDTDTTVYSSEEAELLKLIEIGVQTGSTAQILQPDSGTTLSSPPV

[3] = Protein binding in mouse plasma; type: ADME, cell-free; conditions: read-out: PPB (converted)
Mus musculus [4] = assay: Plasma concentration in mouse at 10 mg/kg, po; type: ADME, organism-based; set-up: dose 10 mg/kg, route oral; conditions: in vivo
[5] = Half life in Sprague-Dawley rat at 0.5 mg/kg, iv; type: ADME, organism-based; set-up: dose 0.5 mg/kg, route intravenous; conditions: in vivo
Aurora kinase A = biological target: T2, Aurora kinase A (Homo sapiens, UniProt O14965); assay: Inhibition of Aurora A
T2 sequence (O14965 whole entry): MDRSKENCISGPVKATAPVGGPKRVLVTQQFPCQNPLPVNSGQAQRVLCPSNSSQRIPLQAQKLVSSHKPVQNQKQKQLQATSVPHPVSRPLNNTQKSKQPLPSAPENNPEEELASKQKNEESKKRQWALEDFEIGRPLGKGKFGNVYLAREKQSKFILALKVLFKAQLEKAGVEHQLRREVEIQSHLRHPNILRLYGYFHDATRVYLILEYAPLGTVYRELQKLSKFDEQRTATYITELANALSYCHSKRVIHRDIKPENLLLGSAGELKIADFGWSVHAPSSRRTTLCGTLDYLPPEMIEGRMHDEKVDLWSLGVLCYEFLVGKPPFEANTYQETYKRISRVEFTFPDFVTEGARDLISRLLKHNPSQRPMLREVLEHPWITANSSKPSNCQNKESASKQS

Mus musculus [6] = assay: Inhibition of human angiopoietin-1-stimulated Tie2 phosphorylation in mouse lung tissue model at 10 mg/kg, po; type: functional; set-up: scale not given: the % may be the effect or the level left
Plasma = assay: Unbound concentration in mouse plasma
Mus musculus [7] = assay: Inhibition of human angiopoietin-1-stimulated Tie2 phosphorylation in mouse lung tissue model at >=30 mg/kg, po; type: functional, organism-based
[8] = Clearance in Sprague-Dawley rat at 0.5 mg/kg, iv; type: ADME, organism-based; set-up: dose 0.5 mg/kg, route intravenous; conditions: in vivo
Mus musculus [9] = assay: Inhibition of human angiopoietin-1-stimulated Tie2 phosphorylation in po dosed mouse lung tissue model; type: functional, organism-based
[10] = Volume of distribution at steady state in Sprague-Dawley rat at 0.5 mg/kg, iv; type: ADME, organism-based; set-up: dose 0.5 mg/kg, route intravenous; conditions: in vivo, read-out: Vdss
[11] = Inhibition of Aurora kinase in human HeLa cells assessed as induction of >=4N DNA content; type: cell-based
Aurora kinase B = Aurora kinase B (Homo sapiens, UniProt Q96GD4); assay: Inhibition of Aurora B
Chain of Aurora kinase B (Q96GD4 whole entry): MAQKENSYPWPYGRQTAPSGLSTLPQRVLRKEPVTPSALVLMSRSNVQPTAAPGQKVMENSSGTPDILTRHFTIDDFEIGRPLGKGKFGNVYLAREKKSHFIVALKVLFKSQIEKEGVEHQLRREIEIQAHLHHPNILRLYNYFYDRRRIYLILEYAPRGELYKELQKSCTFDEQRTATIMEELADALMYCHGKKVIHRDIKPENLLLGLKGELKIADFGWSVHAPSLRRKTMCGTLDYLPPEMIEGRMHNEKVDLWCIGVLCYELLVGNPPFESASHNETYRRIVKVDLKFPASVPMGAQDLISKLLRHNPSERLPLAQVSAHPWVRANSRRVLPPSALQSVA

[12] = Oral bioavailability in Sprague-Dawley rat at 5 mg/kg; type: ADME, organism-based; conditions: in vivo
Angiopoietin-1 receptor [13] = biological target: T1, Angiopoietin-1 receptor; assay: Inhibition of Tie2 autophosphorylation in human Ea.hy926 cells; type: cell-based
[14] = Inhibition of JNK

T1 sequence (Q02763 whole entry): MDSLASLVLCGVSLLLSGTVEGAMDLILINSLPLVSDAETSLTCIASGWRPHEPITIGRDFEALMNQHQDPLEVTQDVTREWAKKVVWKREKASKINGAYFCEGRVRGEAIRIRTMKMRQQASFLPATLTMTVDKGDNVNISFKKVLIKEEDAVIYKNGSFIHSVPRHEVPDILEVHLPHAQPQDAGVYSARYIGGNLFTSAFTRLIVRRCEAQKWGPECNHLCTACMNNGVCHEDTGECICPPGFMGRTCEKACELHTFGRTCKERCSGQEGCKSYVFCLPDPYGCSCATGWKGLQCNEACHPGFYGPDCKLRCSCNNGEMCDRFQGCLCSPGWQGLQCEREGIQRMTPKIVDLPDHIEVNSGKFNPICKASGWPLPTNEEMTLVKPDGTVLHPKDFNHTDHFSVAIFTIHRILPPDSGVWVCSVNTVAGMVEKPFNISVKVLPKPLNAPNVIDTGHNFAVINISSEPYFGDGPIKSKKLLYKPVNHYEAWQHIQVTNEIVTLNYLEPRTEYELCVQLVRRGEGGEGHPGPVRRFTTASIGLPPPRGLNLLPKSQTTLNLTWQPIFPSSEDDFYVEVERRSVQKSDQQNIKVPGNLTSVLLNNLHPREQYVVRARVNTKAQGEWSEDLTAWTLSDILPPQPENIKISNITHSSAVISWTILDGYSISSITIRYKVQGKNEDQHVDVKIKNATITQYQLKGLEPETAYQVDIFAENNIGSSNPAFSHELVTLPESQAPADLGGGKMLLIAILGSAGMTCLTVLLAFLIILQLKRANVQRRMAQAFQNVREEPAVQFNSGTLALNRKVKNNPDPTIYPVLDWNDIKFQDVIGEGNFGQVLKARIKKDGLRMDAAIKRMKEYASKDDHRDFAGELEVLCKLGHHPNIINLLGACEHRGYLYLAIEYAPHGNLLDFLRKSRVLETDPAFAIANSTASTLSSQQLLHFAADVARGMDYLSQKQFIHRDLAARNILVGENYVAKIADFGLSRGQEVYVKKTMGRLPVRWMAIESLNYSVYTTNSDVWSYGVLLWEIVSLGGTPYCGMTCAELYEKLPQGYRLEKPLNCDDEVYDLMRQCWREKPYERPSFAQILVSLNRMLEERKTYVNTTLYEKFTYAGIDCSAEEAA

Structure (SMILES) | IC50 (Angiopoietin-1 receptor [1]) | IC50 [2] | also measured
CNc1nccc(-c2cccnc2Oc2ccc(Nc3nc4ccccc4o3)c3ccccc23)n1 | 16 nM | 30 nM | –
CNc1nccc(-c2cccnc2Oc2c(C)cc(Nc3nc4ccccc4[nH]3)c3ccccc23)n1 | – | > 5000 nM | fraction unbound [3]: 0.004; concentration (Mus musculus [4]): 260 nM; half-life [5]: 3.7 h; IC50 (Aurora kinase A): 28 nM; Activity (Mus musculus [6]): 50%; unbound plasma concentration (Plasma): 1 nM; Activity (Mus musculus [7]): Active; clearance [8]: 28 mL/min/kg; Activity (Mus musculus [9]): Dose-dependent effect; Vd [10]: 5.9 L/kg; IC50 [11]: > 1200 nM; IC50 (Aurora kinase B): 80 nM; bioavailability [12]: 26%
CNc1nccc(-c2cccnc2Oc2ccc(NC(=O)Nc3ccccc3)cc2C)n1 | 460 nM | 7600 nM | –
CNc1nccc(-c2cccnc2Oc2ccc(NC(=O)Nc3cccc(C(F)(F)F)c3)cc2C)n1 | – | 34 nM | –
CNc1nccc(-c2cccnc2Oc2ccc(Nc3nc4ccccc4[nH]3)c3ccccc23)n1 | 1 nM | 1400 nM | IC50 (Aurora kinase A): 19 nM; IC50 (Angiopoietin-1 receptor [13]): 20 nM; IC50 [11]: 120 nM; IC50 (Aurora kinase B): 10 nM; EC50 [14]: < 100 nM
CNc1nccc(-c2cccnc2Oc2ccc(Nc3nc4cc(C(F)(F)F)ccc4[nH]3)c3ccccc23)n1 | 27 nM | 69 nM | –
CNc1nccc(-c2cccnc2Oc2ccc(NC(=O)Nc3ccccc3)c3ccccc23)n1 | 5 nM | 40 nM | –
CNc1nccc(-c2cccnc2Oc2ccc(Nc3nc4ccccc4[nH]3)cc2)n1 | 250 nM | > 25000 nM | –
CNc1nccc(-c2cccnc2Oc2ccc(Nc3nc4ccccc4[nH]3)c(C)c2C)n1 | 310 nM | > 25000 nM | –
CNc1nccc(-c2cccnc2Oc2ccc(Nc3nc4c(C)cccc4[nH]3)c3ccccc23)n1 | 110 nM | 1570 nM | –
CNc1nccc(-c2cccnc2Oc2ccc(Nc3nc4ccccc4n3C)c3ccccc23)n1 | 240 nM | 250 nM | –
CNc1nccc(-c2cccnc2Oc2ccc(Nc3nc4ccccc4s3)c3ccccc23)n1 | 44 nM | 88 nM | –
CNc1nccc(-c2cccnc2Oc2ccc(Nc3nc4ccc(C(F)(F)F)cc4[nH]3)cc2C)n1 | 470 nM | 6000 nM | –
CNc1nccc(-c2cccnc2Oc2ccc(Nc3nc4ccccc4[nH]3)c(C)c2)n1 | 590 nM | > 25000 nM | –
CNc1nccc(-c2cccnc2Oc2ccc(Nc3nc4ccccc4[nH]3)cc2C)n1 | 23 nM | > 25000 nM | IC50 (Angiopoietin-1 receptor [13]): 250 nM
